Conditions: Hot wire method

FC(F)(F)/C=C/Cl [(E)-1-chloro-3,3,3-trifluoroprop-1-ene]
Conditions | thermal conductivity [W/m/K]
423.65 K, 7612 kPa, Liquid | 0.05622
423.65 K, 7619 kPa, Liquid | 0.05627
423.65 K, 22720 kPa, Liquid | 0.06706
423.66 K, 22716 kPa, Liquid | 0.06723
423.67 K, 28114 kPa, Liquid | 0.07024
423.69 K, 28097 kPa, Liquid | 0.07022
423.72 K, 13391 kPa, Liquid | 0.0611
423.72 K, 13398 kPa, Liquid | 0.06111
423.77 K, 20045 kPa, Liquid | 0.06561
423.77 K, 20052 kPa, Liquid | 0.06562
423.78 K, 11664 kPa, Liquid | 0.05978
423.79 K, 11674 kPa, Liquid | 0.05981
423.83 K, 25690 kPa, Liquid | 0.06889
423.84 K, 25696 kPa, Liquid | 0.06888
423.85 K, 10139 kPa, Liquid | 0.05851
423.86 K, 10145 kPa, Liquid | 0.05848
423.86 K, 17471 kPa, Liquid | 0.06395
423.87 K, 17475 kPa, Liquid | 0.06396
423.93 K, 15376 kPa, Liquid | 0.06253
423.93 K, 15379 kPa, Liquid | 0.06254
423.94 K, 22691 kPa, Liquid | 0.06716
423.95 K, 22710 kPa, Liquid | 0.06724
424.02 K, 13386 kPa, Liquid | 0.06109
424.02 K, 13393 kPa, Liquid | 0.06113
451.03 K, 4240 kPa, Fluid (supercritical or subcritical phases) | 0.04303
451.04 K, 4194 kPa, Fluid (supercritical or subcritical phases) | 0.04141
451.04 K, 4285 kPa, Fluid (supercritical or subcritical phases) | 0.0443
451.05 K, 4194 kPa, Fluid (supercritical or subcritical phases) | 0.04138
451.05 K, 4285 kPa, Fluid (supercritical or subcritical phases) | 0.04428
451.1 K, 4194 kPa, Fluid (supercritical or subcritical phases) | 0.0413
451.11 K, 4329 kPa, Fluid (supercritical or subcritical phases) | 0.04555
451.12 K, 4329 kPa, Fluid (supercritical or subcritical phases) | 0.04569
451.13 K, 4146 kPa, Fluid (supercritical or subcritical phases) | 0.03927
451.14 K, 4146 kPa, Fluid (supercritical or subcritical phases) | 0.03925
451.15 K, 4091 kPa, Fluid (supercritical or subcritical phases) | 0.03775
451.19 K, 4240 kPa, Fluid (supercritical or subcritical phases) | 0.0441
451.2 K, 4146 kPa, Fluid (supercritical or subcritical phases) | 0.03962
451.2 K, 4240 kPa, Fluid (supercritical or subcritical phases) | 0.04407
451.21 K, 4024 kPa, Fluid (supercritical or subcritical phases) | 0.03539
451.21 K, 4146 kPa, Fluid (supercritical or subcritical phases) | 0.03961
451.21 K, 4329 kPa, Fluid (supercritical or subcritical phases) | 0.0465
451.22 K, 4091 kPa, Fluid (supercritical or subcritical phases) | 0.03768
451.22 K, 4285 kPa, Fluid (supercritical or subcritical phases) | 0.04586
451.22 K, 4329 kPa, Fluid (supercritical or subcritical phases) | 0.04642
451.24 K, 4335 kPa, Fluid (supercritical or subcritical phases) | 0.04596
451.24 K, 4404 kPa, Fluid (supercritical or subcritical phases) | 0.04602
451.25 K, 4146 kPa, Fluid (supercritical or subcritical phases) | 0.03998
451.25 K, 4335 kPa, Fluid (supercritical or subcritical phases) | 0.04625
451.25 K, 4404 kPa, Fluid (supercritical or subcritical phases) | 0.04634
451.26 K, 3939 kPa, Fluid (supercritical or subcritical phases) | 0.03353
451.27 K, 4025 kPa, Fluid (supercritical or subcritical phases) | 0.03578
451.28 K, 4024 kPa, Fluid (supercritical or subcritical phases) | 0.03519
451.28 K, 4091 kPa, Fluid (supercritical or subcritical phases) | 0.03788
451.29 K, 4090 kPa, Fluid (supercritical or subcritical phases) | 0.0379
451.3 K, 4146 kPa, Fluid (supercritical or subcritical phases) | 0.04026
451.31 K, 4146 kPa, Fluid (supercritical or subcritical phases) | 0.04022
451.32 K, 3831 kPa, Fluid (supercritical or subcritical phases) | 0.03175
451.35 K, 3691 kPa, Fluid (supercritical or subcritical phases) | 0.02988
451.35 K, 4024 kPa, Fluid (supercritical or subcritical phases) | 0.03573
451.35 K, 4025 kPa, Fluid (supercritical or subcritical phases) | 0.03528
451.35 K, 4091 kPa, Fluid (supercritical or subcritical phases) | 0.0383
451.36 K, 3691 kPa, Fluid (supercritical or subcritical phases) | 0.02992
451.36 K, 4091 kPa, Fluid (supercritical or subcritical phases) | 0.03832
451.37 K, 4404 kPa, Fluid (supercritical or subcritical phases) | 0.04741
451.38 K, 3649 kPa, Fluid (supercritical or subcritical phases) | 0.02977
451.39 K, 3831 kPa, Fluid (supercritical or subcritical phases) | 0.03167
451.4 K, 3831 kPa, Fluid (supercritical or subcritical phases) | 0.03184
451.41 K, 3939 kPa, Fluid (supercritical or subcritical phases) | 0.03376
451.42 K, 3508 kPa, Fluid (supercritical or subcritical phases) | 0.02833
451.43 K, 3509 kPa, Fluid (supercritical or subcritical phases) | 0.02845
451.44 K, 3691 kPa, Fluid (supercritical or subcritical phases) | 0.02982
451.44 K, 4090 kPa, Fluid (supercritical or subcritical phases) | 0.03859
